Measured values: US4873225A, “1-n-(4-amino-3-fluoro-2-hydroxybutyryl)-kanamycins” (Zaidan Hojin Biseibutsu Kagaku Kenkyu Kai, priority 1987, dated 1989)
≈ marks a conversion by molar mass, not a printed value. Like-named read-outs stand apart in the source and are kept apart here.

What was measured:
Assay in all cases: MIC, standard serial dilution method
Format in all cases: cell-based
Bacillus subtilis PCI219 = test system: Bacillus subtilis PCI219
Protocol: (§1) Antibacterial activities of each of the abovementioned compounds of the general formula (I) according to this invention were determined by measuring their minimum growth inhibitory concentrations (MIC, mcg/ml) against various bacteria in accordance with a standard serial dilution method. The pH condition of the incubation medium where the MIC data were measured was set at pH 7, unless otherwise specifically indicated. For the sake of comparison, the antibacterial spectra of 1-N-{(S)-4-amino-2-hydroxybutyryl}kanamycin A (i.e., amikacin) and 1-N-{(S)-4-amino-2-hydroxybutyryl}-3,4-dideoxykanamycin B (i.e., habekacin) were also measured in the same manner.

[1] = test system: Corynebacterium bovis 1810; details: Corynebacterium bovis, 1810, pH 7
Protocol: as §1

Escherichia coli JR 225 = details: JR225, pH 7
Protocol: as §1

[2] = test system: Escherichia coli K-12 LA 290 R55; details: K12LA290R55, pH 7
Protocol: as §1

[3] = test system: Escherichia coli K-12 ML 1629
Protocol: as §1

Escherichia coli K-12 = details: K12, pH 7
Protocol: as §1

[4] = test system: Klebsiella pneumoniae 22 #3038
Protocol: as §1

Mycobacterium 607 = details: Mycobacterium, 607, pH 7
Protocol: as §1

Proteus rettgeri GN 311 = details: Providencia rettgeri, GN311, pH 7
Protocol: as §1

Providencia sp. Pv 16 = test system: Providencia sp. Pv 16
Protocol: as §1

[5] = test system: Pseudomonas aeruginosa A3
Protocol: as §1

[6] = test system: Pseudomonas aeruginosa GN 315; details: GN315, pH 7
Protocol: as §1

Serratia marcescens = test system: Serratia marcescens
Protocol: as §1

[7] = test system: Staphylococcus aureus 209P
Protocol: as §1

[8] = test system: Staphylococcus aureus Ap01
Protocol: as §1

Escherichia coli K-12 R5 = details: K12R5, pH 7
Protocol: as §1
Infectious diseases by Escherichia coli K-12 R5 tend to increase in recent days. The compounds of this invention are therefore important for the therapeutic treatment of bacterial infections.

[9] = test system: Escherichia coli JR66/W677; details: for MIC: Escherichia coli; for antibacterial activity (MIC) at pH 6 as compared to pH 7: pH 6 vs pH 7
Protocol: as §1
(§2) (a) The antibacterial activities of the compounds of this invention are not decreased practically even under pH conditions of pH […] as compared to their antibacterial activities under neutral conditions of pH 7.

[10] = test system: Pseudomonas aeruginosa TI 13; details: for MIC: Pseudomonas aeruginosa; for antibacterial activity (MIC) at pH 6 as compared to pH 7: pH 6 vs pH 7
Protocol: as §1, §2

[11] = JR66/W677, measured at pH 6, read-out: MIC
[12] = TI13, measured at pH 6, read-out: MIC

SMILES: NCC[C@H](O)C(=O)N[C@@H]1C[C@H](N)[C@@H](O[C@H]2O[C@H](CN)[C@@H](O)[C@H](O)[C@H]2O)[C@H](O)[C@H]1O[C@H]1O[C@H](CO)[C@@H](O)[C@H](N)[C@H]1O [Amikacin, 1-N-{(S)-4-amino-2-hydroxybutyryl}kanamycin A, reference compound]
- MIC (Bacillus subtilis PCI219; PCI219, pH 7): 1.56 µg/mL (≈ 2.66 µM)
- MIC [1]: 1.56 µg/mL (≈ 2.66 µM)
- MIC (Escherichia coli JR 225): 0.78 µg/mL (≈ 1.33 µM)
- MIC [2]: 1.56 µg/mL (≈ 2.66 µM)
- MIC ([3]; K12ML1629, pH 7): 1.56 µg/mL (≈ 2.66 µM)
- MIC (Escherichia coli K-12): 0.78 µg/mL (≈ 1.33 µM)
- MIC ([4]; pH 7): 3.12 µg/mL (≈ 5.33 µM)
- MIC (Mycobacterium 607): 1.56 µg/mL (≈ 2.66 µM)
- MIC (Proteus rettgeri GN 311): 1.56 µg/mL (≈ 2.66 µM)
- MIC (Providencia sp. Pv 16; SP.PV16, pH 7): 1.56 µg/mL (≈ 2.66 µM)
- MIC ([5]; A3, pH 7): 1.56 µg/mL (≈ 2.66 µM)
- MIC [6]: 25 µg/mL (≈ 42.7 µM)
- MIC (Serratia marcescens; pH 7, read-out: MIC): 6.25 µg/mL (≈ 10.7 µM)
- MIC ([7]; pH 7): 1.56 µg/mL (≈ 2.66 µM)
- MIC ([8]; AP01, pH 7): 3.12 µg/mL (≈ 5.33 µM)
- MIC (Escherichia coli K-12 R5): 25 µg/mL (≈ 42.7 µM)
- MIC ([9]; JR66/W677, pH 7): 3.12 µg/mL (≈ 5.33 µM)
- MIC [9, 11]: 25 µg/mL (≈ 42.7 µM)
- antibacterial activity (MIC) at pH 6 as compared to pH 7 [9]: reduced considerably at pH 6
- MIC ([10]; TI13, pH 7): 3.12 µg/mL (≈ 5.33 µM)
- MIC [10, 12]: 12.5 µg/mL (≈ 21.3 µM)
- antibacterial activity (MIC) at pH 6 as compared to pH 7 [10]: reduced considerably at pH 6

SMILES: NCC[C@H](O)C(=O)N[C@@H]1C[C@H](N)[C@@H](O[C@H]2O[C@H](CN)CC[C@H]2N)[C@H](O)[C@H]1O[C@H]1O[C@H](CO)[C@@H](O)[C@H](N)[C@H]1O [Habekacin, 1-N-{(S)-4-amino-2-hydroxybutyryl}-3,4-dideoxykanamycin B, reference compound]
- MIC (Bacillus subtilis PCI219; PCI219, pH 7, read-out: MIC): < 0.2 µg/mL
- MIC ([1]; read-out: MIC): 0.39 µg/mL (≈ 0.706 µM)
- MIC (Escherichia coli JR 225): 0.78 µg/mL (≈ 1.41 µM)
- MIC [2]: 0.78 µg/mL (≈ 1.41 µM)
- MIC ([3]; K12ML1629, pH 7, read-out: MIC): 0.78 µg/mL (≈ 1.41 µM)
- MIC (Escherichia coli K-12): 0.39 µg/mL (≈ 0.706 µM)
- MIC ([4]; pH 7): 1.56 µg/mL (≈ 2.82 µM)
- MIC (Mycobacterium 607; read-out: MIC): 0.39 µg/mL (≈ 0.706 µM)
- MIC (Proteus rettgeri GN 311; read-out: MIC): 0.78 µg/mL (≈ 1.41 µM)
- MIC (Providencia sp. Pv 16; SP.PV16, pH 7): 1.56 µg/mL (≈ 2.82 µM)
- MIC ([5]; A3, pH 7, read-out: MIC): < 0.2 µg/mL
- MIC [6]: 3.12 µg/mL (≈ 5.65 µM)
- MIC (Serratia marcescens; pH 7): 12.5 µg/mL (≈ 22.6 µM)
- MIC ([7]; pH 7, read-out: MIC): < 0.2 µg/mL
- MIC ([8]; AP01, pH 7, read-out: MIC): 0.39 µg/mL (≈ 0.706 µM)
- MIC (Escherichia coli K-12 R5): 25 µg/mL (≈ 45.2 µM)
- MIC ([9]; JR66/W677, pH 6): 6.25 µg/mL (≈ 11.3 µM)
- MIC ([9]; JR66/W677, pH 7, read-out: MIC): 0.78 µg/mL (≈ 1.41 µM)
- antibacterial activity (MIC) at pH 6 as compared to pH 7 [9]: reduced considerably at pH 6
- MIC ([10]; TI13, pH 7, read-out: MIC): 0.78 µg/mL (≈ 1.41 µM)
- MIC [10, 12]: 25 µg/mL (≈ 45.2 µM)
- antibacterial activity (MIC) at pH 6 as compared to pH 7 [10]: reduced considerably at pH 6

SMILES: NC[C@@H](F)[C@H](O)C(=O)N[C@@H]1C[C@H](N)[C@@H](O[C@H]2O[C@H](CN)[C@@H](O)[C@H](O)[C@H]2O)[C@H](O)[C@H]1O[C@H]1O[C@H](CO)[C@@H](O)[C@H](N)[C@H]1O [Invention Compound No. 1, 1-N-{(2R,3R)-4-Amino-3-fluoro-2-hydroxybutyryl}-kanamycin A]
- MIC (Bacillus subtilis PCI219; PCI219, pH 7, read-out: MIC): 0.78 µg/mL (≈ 1.29 µM)
- MIC ([1]; read-out: MIC): 0.78 µg/mL (≈ 1.29 µM)
- MIC (Escherichia coli JR 225): 0.78 µg/mL (≈ 1.29 µM)
- MIC [2]: 1.56 µg/mL (≈ 2.58 µM)
- MIC ([3]; K12ML1629, pH 7, read-out: MIC): 1.56 µg/mL (≈ 2.58 µM)
- MIC (Escherichia coli K-12): 0.39 µg/mL (≈ 0.646 µM)
- MIC ([4]; pH 7, read-out: MIC): 3.12 µg/mL (≈ 5.17 µM)
- MIC (Mycobacterium 607; read-out: MIC): 1.56 µg/mL (≈ 2.58 µM)
- MIC (Proteus rettgeri GN 311; read-out: MIC): 0.39 µg/mL (≈ 0.646 µM)
- MIC (Providencia sp. Pv 16; SP.PV16, pH 7, read-out: MIC): 1.56 µg/mL (≈ 2.58 µM)
- MIC ([5]; A3, pH 7, read-out: MIC): 0.78 µg/mL (≈ 1.29 µM)
- MIC [6]: 25 µg/mL (≈ 41.4 µM)
- MIC (Serratia marcescens; pH 7, read-out: MIC): 3.12 µg/mL (≈ 5.17 µM)
- MIC ([7]; pH 7, read-out: MIC): 1.56 µg/mL (≈ 2.58 µM)
- MIC ([8]; AP01, pH 7, read-out: MIC): 6.25 µg/mL (≈ 10.4 µM)
- MIC (Escherichia coli K-12 R5): 12.5 µg/mL (≈ 20.7 µM)
- MIC ([9]; JR66/W677, pH 7, read-out: MIC): 1.56 µg/mL (≈ 2.58 µM)
- MIC [9, 11]: 6.25 µg/mL (≈ 10.4 µM)
- MIC ([10]; TI13, pH 7, read-out: MIC): 3.12 µg/mL (≈ 5.17 µM)
- MIC [10, 12]: 3.12 µg/mL (≈ 5.17 µM)

SMILES: NC[C@@H](F)[C@H](O)C(=O)N[C@@H]1C[C@H](N)[C@@H](O[C@H]2O[C@H](CN)[C@@H](O)C[C@H]2F)[C@H](O)[C@H]1O[C@H]1O[C@H](CO)[C@@H](O)[C@H](N)[C@H]1O [Invention Compound No. 3, 1-N-{(2R,3R)-4-Amino-3-fluoro-2-hydroxybutyryl}-2',3'-dideoxy-2'-fluorokanamycin A]
- MIC (Bacillus subtilis PCI219; PCI219, pH 7, read-out: MIC): 0.39 µg/mL (≈ 0.661 µM)
- MIC ([1]; read-out: MIC): 0.78 µg/mL (≈ 1.32 µM)
- MIC (Escherichia coli JR 225): 0.39 µg/mL (≈ 0.661 µM)
- MIC [2]: 0.78 µg/mL (≈ 1.32 µM)
- MIC ([3]; K12ML1629, pH 7, read-out: MIC): 0.39 µg/mL (≈ 0.661 µM)
- MIC (Escherichia coli K-12): 0.2 µg/mL (≈ 0.339 µM)
- MIC ([4]; pH 7, read-out: MIC): 0.78 µg/mL (≈ 1.32 µM)
- MIC (Mycobacterium 607; read-out: MIC): 0.78 µg/mL (≈ 1.32 µM)
- MIC (Proteus rettgeri GN 311; read-out: MIC): 0.78 µg/mL (≈ 1.32 µM)
- MIC (Providencia sp. Pv 16; SP.PV16, pH 7, read-out: MIC): 0.78 µg/mL (≈ 1.32 µM)
- MIC ([5]; A3, pH 7, read-out: MIC): 0.78 µg/mL (≈ 1.32 µM)
- MIC [6]: 12.5 µg/mL (≈ 21.2 µM)
- MIC (Serratia marcescens; pH 7, read-out: MIC): 1.56 µg/mL (≈ 2.65 µM)
- MIC ([7]; pH 7, read-out: MIC): 0.78 µg/mL (≈ 1.32 µM)
- MIC ([8]; AP01, pH 7, read-out: MIC): 1.56 µg/mL (≈ 2.65 µM)
- MIC (Escherichia coli K-12 R5): 6.25 µg/mL (≈ 10.6 µM)
- MIC ([9]; JR66/W677, pH 7, read-out: MIC): 0.78 µg/mL (≈ 1.32 µM)
- MIC [9, 11]: 1.56 µg/mL (≈ 2.65 µM)
- MIC ([10]; TI13, pH 7, read-out: MIC): 3.12 µg/mL (≈ 5.29 µM)
- MIC [10, 12]: 3.12 µg/mL (≈ 5.29 µM)
